# Results published in patent publication US20120115896A1, “ISOGENIC HUMAN CELL LINES COMPRISING MUTATED CANCER ALLELES AND PROCESS USING THE CELL LINES” (priority 2008, published 2012).
# Read-outs that look alike come from different tables or passages of the source.
# Assays:
# [1] = tested on: hTERT-HME1 cells carrying KRAS (G13D) KI; test: Drug assay: cell viability by ATP content (96 h), KI versus parental cells; ΔKI pharmarray analysis
# [2] = tested on: hTERT-HME1 cells carrying BRAF (V600E) KI; test: as above
# [3] = tested on: hTERT-HME1 DKI cells carrying PIK3CA (H1047R) and EGFR (delE746-A750); test: Drug assay: cell viability by ATP content (96 h), DKI versus parental cells; ΔKI pharmarray analysis
# [4] = tested on: hTERT-HME1 cells carrying EGFR (delE746-A750) KI; test: Drug assay: cell viability by ATP content (CellTiter-Glo, 96 h), KI versus parental cells; ΔKI pharmarray analysis
# [5] = tested on: hTERT-HME1 cells carrying PIK3CA (E545K and H1047R) KI; test: Drug assay: cell viability by ATP content (96 h) and Hoechst/propidium iodide staining, KI versus parental cells; ΔKI pharmarray analysis
compound,measurement,setting,value
N.N.[Cl][Pt][Cl] [Cisplatin],ΔKI KRAS,[1]; Log(M) −4.70,0
same,ΔKI KRAS,[1]; Log(M) −5.00,0
same,ΔKI KRAS,[1]; Log(M) −5.70,0
same,ΔKI KRAS,[1]; Log(M) −6.00,0
same,ΔKI KRAS,[1]; Log(M) −6.70,0
same,ΔKI KRAS,[1]; Log(M) −7.00,0
same,ΔKI BRAF,[2]; Log(M) −4.70,3.82
same,ΔKI BRAF,[2]; Log(M) −5.00,0
same,ΔKI BRAF,[2]; Log(M) −5.70,7.62
same,ΔKI BRAF,[2]; Log(M) −6.00,0
same,ΔKI BRAF,[2]; Log(M) −6.70,0
same,ΔKI BRAF,[2]; Log(M) −7.00,0
same,ΔKI PIK3CA + EGFR,[3]; Log(M) −4.70,0
same,ΔKI PIK3CA + EGFR,[3]; Log(M) −5.00,4.9
same,ΔKI PIK3CA + EGFR,[3]; Log(M) −5.70,2.16
same,ΔKI PIK3CA + EGFR,[3]; Log(M) −6.00,0.7
same,ΔKI PIK3CA + EGFR,[3]; Log(M) −6.70,0
same,ΔKI PIK3CA + EGFR,[3]; Log(M) −7.00,−1.32
same,ΔKI EGFR,[4]; Log(M) −4.70,0
same,ΔKI EGFR,[4]; Log(M) −5.00,4.84
same,ΔKI EGFR,[4]; Log(M) −5.70,0
same,ΔKI EGFR,[4]; Log(M) −6.00,0
same,ΔKI EGFR,[4]; Log(M) −6.70,0
same,ΔKI EGFR,[4]; Log(M) −7.00,0
same,ΔKI PIK3CA,[5]; Log(M) −4.70,0
same,ΔKI PIK3CA,[5]; Log(M) −5.00,0
same,ΔKI PIK3CA,[5]; Log(M) −5.70,0
same,ΔKI PIK3CA,[5]; Log(M) −6.00,0
same,ΔKI PIK3CA,[5]; Log(M) −6.70,0
same,ΔKI PIK3CA,[5]; Log(M) −7.00,0
CCCn1c(C)c(C(=O)c2cccc3ccccc23)c2ccccc21 [JWH-015],ΔKI KRAS,[1],0
same,ΔKI KRAS,[1]; Log(M) −3.55,0
same,ΔKI BRAF,[2],0
same,ΔKI BRAF,[2]; Log(M) −3.55,0
same,ΔKI PIK3CA + EGFR,[3],0
same,ΔKI PIK3CA + EGFR,[3]; Log(M) −3.55,0
same,ΔKI EGFR,[4],0
same,ΔKI EGFR,[4]; Log(M) −3.55,0
same,ΔKI PIK3CA,[5],0
same,ΔKI PIK3CA,[5]; Log(M) −3.55,0
COc1ccc2c(c1)c(CC(=O)N1CCOCC1)c(C)n2C(=O)c1ccc(Cl)cc1 [IMMA (BML-190)],ΔKI KRAS,[1],0
same,ΔKI KRAS,[1]; Log(M) −3.90,0
same,ΔKI BRAF,[2],0
same,ΔKI BRAF,[2]; Log(M) −3.90,0
same,ΔKI PIK3CA + EGFR,[3],0
same,ΔKI PIK3CA + EGFR,[3]; Log(M) −3.90,0
same,ΔKI EGFR,[4],0
same,ΔKI EGFR,[4]; Log(M) −3.90,0
same,ΔKI PIK3CA,[5],0
same,ΔKI PIK3CA,[5]; Log(M) −3.90,0.72
O=C1CCC(N2C(=O)c3ccccc3C2=O)C(=O)N1 (stereo not drawn) [OGC-065],ΔKI KRAS,[1],0
same,ΔKI KRAS,[1]; Log(M) −2.05,0
same,ΔKI KRAS,[1]; Log(M) −3.35,0
same,ΔKI BRAF,[2],0
same,ΔKI BRAF,[2]; Log(M) −2.05,0
same,ΔKI BRAF,[2]; Log(M) −3.35,0
same,ΔKI PIK3CA + EGFR,[3]; Log(M) −2.05,0
same,ΔKI PIK3CA + EGFR,[3]; Log(M) −3.35,−0.8
same,ΔKI EGFR,[4],0
same,ΔKI EGFR,[4]; Log(M) −2.05,0
same,ΔKI EGFR,[4]; Log(M) −3.35,−0.68
same,ΔKI PIK3CA,[5],0
same,ΔKI PIK3CA,[5]; Log(M) −2.05,1.9
same,ΔKI PIK3CA,[5]; Log(M) −3.35,0
CO[C@H]1/C=C\C=C(/C)C(=O)NC2=CC(=O)C(NCCN(C)C)=C(C[C@@H](C)C[C@H](OC)[C@H](O)[C@@H](C)/C=C(\C)[C@@H]1OC(N)=O)C2=O [17-DMAG],ΔKI KRAS,[1]; Log(M) −6.19,0
same,ΔKI KRAS,[1]; Log(M) −6.89,0
same,ΔKI KRAS,[1]; Log(M) −7.00,0
same,ΔKI KRAS,[1]; Log(M) −7.40,0
same,ΔKI KRAS,[1]; Log(M) −7.70,0
same,ΔKI KRAS,[1]; Log(M) −8.10,0
same,ΔKI KRAS,[1]; Log(M) −8.40,0
same,ΔKI BRAF,[2]; Log(M) −6.19,0
same,ΔKI BRAF,[2]; Log(M) −6.89,0
same,ΔKI BRAF,[2]; Log(M) −7.00,0
same,ΔKI BRAF,[2]; Log(M) −7.40,0
same,ΔKI BRAF,[2]; Log(M) −7.70,0
same,ΔKI BRAF,[2]; Log(M) −8.10,0
same,ΔKI BRAF,[2]; Log(M) −8.40,0
same,ΔKI PIK3CA + EGFR,[3]; Log(M) −6.19,1.4
same,ΔKI PIK3CA + EGFR,[3]; Log(M) −6.89,4.46
same,ΔKI PIK3CA + EGFR,[3]; Log(M) −7.00,0
same,ΔKI PIK3CA + EGFR,[3]; Log(M) −7.40,−0.12
same,ΔKI PIK3CA + EGFR,[3]; Log(M) −7.70,0
same,ΔKI PIK3CA + EGFR,[3]; Log(M) −8.10,−1.02
same,ΔKI PIK3CA + EGFR,[3]; Log(M) −8.40,0
same,ΔKI EGFR,[4]; Log(M) −6.19,−1.5
same,ΔKI EGFR,[4]; Log(M) −6.89,−12.5
same,ΔKI EGFR,[4]; Log(M) −7.00,0
same,ΔKI EGFR,[4]; Log(M) −7.40,0
same,ΔKI EGFR,[4]; Log(M) −7.70,−8.56
same,ΔKI EGFR,[4]; Log(M) −8.10,0
same,ΔKI EGFR,[4]; Log(M) −8.40,0
same,pharmarray: differential response of EGFR mutated cells versus WT,"[4]; hTERT-HME1, FIG. 5B, 5E",less susceptible than their WT counterpart
same,ΔKI PIK3CA,[5]; Log(M) −6.19,0
same,ΔKI PIK3CA,[5]; Log(M) −6.89,0
same,ΔKI PIK3CA,[5]; Log(M) −7.00,0
same,ΔKI PIK3CA,[5]; Log(M) −7.40,0
same,ΔKI PIK3CA,[5]; Log(M) −7.70,0
same,ΔKI PIK3CA,[5]; Log(M) −8.10,0
same,ΔKI PIK3CA,[5]; Log(M) −8.40,0
Erybraedin C,ΔKI KRAS,[1],0
same,ΔKI KRAS,[1]; Log(M) −4.70,0
same,ΔKI BRAF,[2],0
same,ΔKI BRAF,[2]; Log(M) −4.70,0
same,ΔKI PIK3CA + EGFR,[3]; Log(M) −4.70,0.38
same,ΔKI EGFR,[4],0
same,ΔKI EGFR,[4]; Log(M) −4.70,0
same,ΔKI PIK3CA,[5],0
same,ΔKI PIK3CA,[5]; Log(M) −4.70,0
COC(=O)C1=CC[C@@]23CC[C@@H]([C@@](C)(/C=C/C=C(\C)C(=O)O)OC2=O)[C@@]3(OC(C)=O)CC1 [Pseudolaric Acid B],ΔKI KRAS,[1],0
same,ΔKI KRAS,[1]; Log(M) −6.48,0
same,ΔKI BRAF,[2]; Log(M) −6.48,0
same,ΔKI PIK3CA + EGFR,[3]; Log(M) −6.48,0.54
same,ΔKI EGFR,[4],0
same,ΔKI EGFR,[4]; Log(M) −6.48,0
same,ΔKI PIK3CA,[5],0
same,ΔKI PIK3CA,[5]; Log(M) −6.48,0
CC(C)c1c(C(=O)Nc2ccccc2)c(-c2ccccc2)c(-c2ccc(F)cc2)n1CC[C@@H](O)C[C@@H](O)CC(=O)[O-].CC(C)c1c(C(=O)Nc2ccccc2)c(-c2ccccc2)c(-c2ccc(F)cc2)n1CC[C@@H](O)C[C@@H](O)CC(=O)[O-].[Ca+2] [Atorvastatin Ca],ΔKI KRAS,[1]; Log(M) −5.25,0
same,ΔKI KRAS,[1]; Log(M) −5.85,0
same,ΔKI KRAS,[1]; Log(M) −6.46,0
same,ΔKI BRAF,[2]; Log(M) −5.25,0
same,ΔKI BRAF,[2]; Log(M) −5.85,−2.6
same,ΔKI BRAF,[2]; Log(M) −6.46,0
same,ΔKI PIK3CA + EGFR,[3]; Log(M) −5.25,0
same,ΔKI PIK3CA + EGFR,[3]; Log(M) −5.85,0
same,ΔKI PIK3CA + EGFR,[3]; Log(M) −6.46,0
same,ΔKI EGFR,[4]; Log(M) −5.25,0
same,ΔKI EGFR,[4]; Log(M) −5.85,0
same,ΔKI EGFR,[4]; Log(M) −6.46,0
same,ΔKI PIK3CA,[5]; Log(M) −5.25,0
same,ΔKI PIK3CA,[5]; Log(M) −5.85,9.44
same,ΔKI PIK3CA,[5]; Log(M) −6.46,0
"O=c1c(-c2ccc(O)cc2)coc2cc(O)cc(O)c12 [genistein, Genistein]",pharmarray: differential response of EGFR mutated cells versus WT,[4],EGFR sensitive drug cluster
O=c1[nH]cc(F)c(=O)[nH]1 [5-FU],ΔKI KRAS,[1],0
same,ΔKI BRAF,[2]; listed as OGC-083,0
same,ΔKI PIK3CA + EGFR,[3],0
same,ΔKI EGFR,[4],0
same,ΔKI PIK3CA,[5],0
